Experimental data published in patent publication US10669240B2, “5-substituted indazole-3-carboxamides and preparation and use thereof” (Samumed, LLC, priority 2014, dated 2020).
Blank lines part the entries; values can stand above or below the compound they belong to.

Experiments:
[1] = system: Wnt activity (Wnt-responsive SP5 promoter luciferase reporter in SW480 cells); assay: Wnt activity reporter assay: SW480 cells with SP5 promoter-driven firefly luciferase; type: cell-based; settings: Homo sapiens, 24 h after compound addition, read-out: Wnt inhibition
Description: The above synthesized compounds were screened using the assay procedure for Wnt activity described below.
Reporter cell lines were generated by stably transducing cells of cancer cell lines (e.g., colon cancer) with a lentiviral construct that include a Wnt-responsive promoter driving expression of the firefly luciferase gene.
Lentiviral constructs were made in which the SP5 promoter, a promoter having eight TCF/LEF binding sites derived from the SP5 promoter, was linked upstream of the firefly luciferase gene. The lentiviral constructs included a hygromycin resistance gene as a selectable marker. The SP5 promoter construct was used to transduce SW480 cells, a colon cancer cell line having a mutated APC gene that generates a truncated APC protein, leading to de-regulated accumulation of β-catenin.
Cultured SW480 cells bearing a reporter construct were distributed at approximately 10,000 cells per well into 384 well multiwell plates. Compounds were then added to the wells in half-log dilutions using a three micromolar top concentration. A series of control wells for each cell type received only buffer and compound solvent. Twenty-four hours after the addition of compound, reporter activity for luciferases was assayed, for example, by addition of the BrightGlo luminescence reagent (Promega) and the Victor3 plate reader (Perkin Elmer). Readings were normalized to DMSO only treated cells, and normalized activities were then used for the IC50 calculations.

DYRK1A = DYRK1A (Homo sapiens (Human), UniProt Q13627); assay: DYRK1A activity Tau assay: pSer396 Tau in SH-SY5Y cells by ELISA / western blot; type: cell-based; settings: overnight (16-18 h) exposure

- IC50 [1]: > 10000 nM
- EC50 (DYRK1A): 37 nM
Compound: CN(C)[C@H]1CC[C@@H](NC(=O)c2n[nH]c3ccc(-c4cccnc4)cc23)CC1 [Compound 1287, N-((1s,4s)-4-(Dimethylamino)cyclohexyl)-5-(pyridin-3-yl)-1H-indazole-3-carboxamide]

Compound: O=C(NC1CCNCC1)c1n[nH]c2ccc(-c3cccnc3)cc12 [Compound 3, N-(Piperidin-4-yl)-5-(pyridin-3-yl)-1H-indazole-3-carboxamide]
- IC50 [1]: 6440 nM
- EC50 (DYRK1A): 28 nM

Compound: O=C(NC1CCN(CC2CC2)CC1)c1n[nH]c2ccc(-c3cncc(Cl)c3)cc12 [Compound 1313, 5-(5-Chloropyridin-3-yl)-N-(1-(cyclopropylmethyl)piperidin-4-yl)-1H-indazole-3-carboxamide]
- IC50 [1]: 1800 nM
- EC50 (DYRK1A): 33 nM

Compound: CN1CCC(NC(=O)c2n[nH]c3ccc(-c4cncc(C(F)(F)F)c4)cc23)CC1 [Compound 95, N-(1-Methylpiperidin-4-yl)-5-(5-(trifluoromethyl)pyridin-3-yl)-1H-indazole-3-carboxamide]
- IC50 [1]: 1070 nM
- EC50 (DYRK1A): 261 nM

Compound: CC(C)CN1CC(NC(=O)c2n[nH]c3ccc(-c4cncc(Cl)c4)cc23)C1 [Compound 1273, 5-(5-Chloropyridin-3-yl)-N-(1-isobutylazetidin-3-yl)-1H-indazole-3-carboxamide]
- IC50 [1]: 3300 nM
- EC50 (DYRK1A): 23 nM

Compound: O=C(NC1CCN(CC(F)F)CC1)c1n[nH]c2ccc(-c3cncc(F)c3)cc12 [Compound 1298, N-(1-(2,2-Difluoroethyl)piperidin-4-yl)-5-(5-fluoropyridin-3-yl)-1H-indazole-3-carboxamide]
- IC50 [1]: 1200 nM
- EC50 (DYRK1A): 28 nM

Compound: NC1CN(c2cncc(-c3ccc4[nH]nc(C(=O)Nc5cccc(F)c5)c4c3)n2)C1 [Compound 1318, 5-(6-(3-Aminoazetidin-1-yl)pyrazin-2-yl)-N-(3-fluorophenyl)-1H-indazole-3-carboxamide]
- IC50 [1]: 4000 nM
- EC50 (DYRK1A): 6 nM

Compound: O=C(NCCN1CCCC1)c1n[nH]c2ccc(-c3cccc(F)c3F)cc12 [Compound 1166, 5-(2,3-Difluorophenyl)-N-(2-(pyrrolidin-1-yl)ethyl)-1H-indazole-3-carboxamide]
- IC50 [1]: 2400 nM
- EC50 (DYRK1A): 79 nM

Compound: CN1CC(NC(=O)c2n[nH]c3ccc(-c4cccc(F)c4F)cc23)C1 [Compound 1272, 5-(2,3-Difluorophenyl)-N-(1-methylazetidin-3-yl)-1H-indazole-3-carboxamide]
- IC50 [1]: 2200 nM
- EC50 (DYRK1A): 56 nM

Compound: O=C(Nc1ncc(F)cc1F)c1n[nH]c2ccc(-c3cncc(CN4CCCCC4)c3)cc12 [Compound 58, N-(3,5-Difluoropyridin-2-yl)-5-(5-(piperidin-1-ylmethyl)pyridin-3-yl)-1H-indazole-3-carboxamide]
- IC50 [1]: 4010 nM
- EC50 (DYRK1A): 3 nM

Compound: CN1CCC(NC(=O)c2n[nH]c3ccc(-c4ccc(F)c(F)c4)cc23)CC1 [Compound 19, 5-(3,4-Difluorophenyl)-N-(1-methylpiperidin-4-yl)-1H-indazole-3-carboxamide]
- IC50 [1]: 6800 nM
- EC50 (DYRK1A): 848 nM

Compound: O=C(Nc1cc(CN2CCCC2)ccc1Cl)c1n[nH]c2ccc(-c3cccnc3)cc12 [Compound 1333, N-(2-Chloro-5-(pyrrolidin-1-ylmethyl)phenyl)-5-(pyridin-3-yl)-1H-indazole-3-carboxamide]
- IC50 [1]: 5100 nM
- EC50 (DYRK1A): 9 nM

Compound: O=C(Nc1ccc(OC(CO)CO)nc1)c1n[nH]c2ccc(-c3cncc(CN4CCCCC4)c3)cc12 [Compound 70, N-(6-((1,3-Dihydroxypropan-2-yl)oxy)pyridin-3-yl)-5-(5-(piperidin-1-ylmethyl)pyridin-3-yl)-1H-indazole-3-carboxamide]
- IC50 [1]: 500 nM

Compound: O=C(Nc1cnccn1)c1n[nH]c2ccc(-c3cncc(CN4CCCCCC4)c3)cc12 [Compound 88, 5-(5-(Azepan-1-ylmethyl)pyridin-3-yl)-N-(pyrazin-2-yl)-1H-indazole-3-carboxamide]
- IC50 [1]: 430 nM

Compound: O=C(NCc1cccc(F)c1)c1n[nH]c2ccc(-c3cncc(CN4CCCCC4)c3)cc12 [Compound 27, N-(3-Fluorobenzyl)-5-(5-(piperidin-1-ylmethyl)pyridin-3-yl)-1H-indazole-3-carboxamide]
- IC50 [1]: 1760 nM
- EC50 (DYRK1A): 2 nM

Compound: N[C@H]1CC[C@H](NC(=O)c2n[nH]c3ccc(-c4cccnc4)cc23)CC1 [Compound 1286, N-((1r,4r)-4-Aminocyclohexyl)-5-(pyridin-3-yl)-1H-indazole-3-carboxamide]
- IC50 [1]: 3700 nM
- EC50 (DYRK1A): 2 nM

Compound: O=C(Nc1cccnc1)c1n[nH]c2ccc(-c3cncc(CN4CCS(=O)(=O)CC4)c3)cc12 [Compound 86, 5-(5-((1,1-Dioxidothiomorpholino)methyl)pyridin-3-yl)-N-(pyridin-3-yl)-1H-indazole-3-carboxamide]
- IC50 [1]: 210 nM

Compound: CN(C(=O)c1n[nH]c2ccc(-c3cncc(CN4CCCCC4)c3)cc12)c1cccnc1 [Compound 76, N-Methyl-5-(5-(piperidin-1-ylmethyl)pyridin-3-yl)-N-(pyridin-3-yl)-1H-indazole-3-carboxamide]
- IC50 [1]: 6500 nM
- EC50 (DYRK1A): 990 nM

Compound: Cc1cc2[nH]nc(C(=O)Nc3ccc(CN4CCCC4)cc3)c2cc1-c1cccnc1 [Compound 1331, 6-Methyl-5-(pyridin-3-yl)-N-(4-(pyrrolidin-1-ylmethyl)phenyl)-1H-indazole-3-carboxamide]
- IC50 [1]: 1400 nM
- EC50 (DYRK1A): 17 nM

Compound: CN1CCN(c2ccc(NC(=O)c3n[nH]c4ccc(-c5cncc(NC(=O)c6ccc(F)cc6F)c5)cc34)cn2)CC1 [Compound 47, 5-(5-(2,4-Difluorobenzamido)pyridin-3-yl)-N-(6-(4-methylpiperazin-1-yl)pyridin-3-yl)-1H-indazole-3-carboxamide]
- IC50 [1]: 333 nM

Compound: CN1CCN(c2ccc(NC(=O)c3n[nH]c4ccc(-c5cncc(NC(=O)c6c(F)cccc6F)c5)cc34)cn2)CC1 [Compound 49, 5-(5-(2,6-Difluorobenzamido)pyridin-3-yl)-N-(6-(4-methylpiperazin-1-yl)pyridin-3-yl)-1H-indazole-3-carboxamide]
- IC50 [1]: 226 nM

Compound: O=C(Nc1cccnc1)c1n[nH]c2ccc(-c3cncc(CN4CC(CO)(CO)C4)c3)cc12 [Compound 50, 5-(5-((3,3-Bis(hydroxymethyl)azetidin-1-yl)methyl)pyridin-3-yl)-N-(pyridin-3-yl)-1H-indazole-3-carboxamide]
- IC50 [1]: 10000 nM

Compound: [2H]C([2H])([2H])Oc1ccc(NC(=O)c2n[nH]c3ccc(-c4cncc(C([2H])([2H])N5CCCCC5)c4)cc23)cn1 [Compound 69, N-(6-(methoxy-d3)pyridin-3-yl)-5-(5-(piperidin-1-ylmethyl-d2)pyridin-3-yl)-1H-indazole-3-carboxamide]
- IC50 [1]: 45 nM

Compound: O=C(Nc1ccc(N2CC(CO)(CO)C2)nc1)c1n[nH]c2ccc(-c3cncc(CN4CCCCC4)c3)cc12 [Compound 72, N-(6-(3,3-Bis(hydroxymethyl)azetidin-1-yl)pyridin-3-yl)-5-(5-(piperidin-1-ylmethyl)pyridin-3-yl)-1H-indazole-3-carboxamide]
- IC50 [1]: 1500 nM

Compound: CC(C)OCCCNC(=O)c1n[nH]c2ccc(-c3cncc(F)c3)cc12 [Compound 1263, 5-(5-Fluoropyridin-3-yl)-N-(3-isopropoxypropyl)-1H-indazole-3-carboxamide]
- IC50 [1]: 1400 nM

Compound: [2H]C([2H])([2H])Oc1ccc(NC(=O)c2n[nH]c3ccc(-c4cncc(CN5CCCCC5)c4)cc23)cn1 [Compound 68, N-(6-(Methoxy-d3)pyridin-3-yl)-5-(5-(piperidin-1-ylmethyl)pyridin-3-yl)-1H-indazole-3-carboxamide]
- IC50 [1]: 57 nM
